Laboratory results: the NIST ThermoML archive (doi:10.1016/j.jct.2015.08.010)

Experiment: xn = mol fraction of the nth substance listed
Details: 100 kPa, Liquid; for viscosity: Falling or rolling sphere viscometry; for mass density: Vibrating tube method

C1CCC2=NCCC[NH+]2CC1.c1c[n-]cn1 [1,8-diazabicyclo[5.4.0]undec-7-enium imidazolide] + O
Details	mass density, 293.15 K [kg/m3]	mass density, 298.15 K [kg/m3]	mass density, 303.15 K [kg/m3]	mass density, 308.15 K [kg/m3]	mass density, 313.15 K [kg/m3]	viscosity, 293.15 K [mPa·s]	viscosity, 298.15 K [mPa·s]	viscosity, 303.15 K [mPa·s]	viscosity, 308.15 K [mPa·s]	viscosity, 313.15 K [mPa·s]
x1 = 0.0298	1026.99	1024.52	1021.91	1019.17	1016.33	2.845	2.428	2.096	1.835	1.614
x1 = 0.0698	1048.57	1045.19	1041.75	1038.24	1034.66	8.167	6.74	5.761	4.854	4.071
x1 = 0.0998	1057.33	1053.65	1050.01	1046.13	1042.33	14.13	11.17	9.019	7.406	6.217
x1 = 0.1875	1067.15	1063.22	1059.26	1055.28	1051.28	34.98	25.84	19.66	15.37	12.31
x1 = 0.2994	1067.1	1063.15	1059.2	1055.23	1051.26	60.57	42.65	30.99	23.32	18.12
x1 = 0.444	1063.55	1059.63	1055.71	1051.79	1047.79	72.41	51.28	37.8	28.37	21.76
x1 = 0.5989	1059.62	1055.73	1051.85	1047.97	1044.1	69.49	49.75	36.33	27.13	20.87
x1 = 0.7516	1056.72	1052.85	1048.97	1045.08	1041.21	63.94	44.98	32.9	24.83	19.33
x1 = 0.8728	1055.11	1051.25	1047.41	1043.56	1039.73	55.45	39.57	29.31	22.6	17.88
x1 = 1	1053.63	1049.78	1045.94	1042.11	1038.28	47.82	34.94	26.36	20.5	16.28
